Data taken from patent US11478460B2, “Diaryl substituted 6,5-fused ring compounds as C5aR inhibitors” (CHEMOCENTRYX, INC., priority 2017, dated 2022).

Molecular target: C5aR (Homo sapiens (Human), UniProt P21730)
Assay: Chemotaxis assay using U937 cells (C5aR mediated migration)
Assay type: cell-based
Details: read-out: Mig IC50
In short: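 Migration toward 0.03 nM C5a, mixed with varying compound in the lower chamber (HBSS with 1% FBS), was measured over 1.5 h at 37° C through 5 μm filters. Upper chamber held 100,000 U937 cells treated overnight with 0.5 mM cAMP; migrated cells quantified by counts or CyQuant for IC50, SDF-1α as specificity control.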

C5aR, sequence (P21730 whole entry): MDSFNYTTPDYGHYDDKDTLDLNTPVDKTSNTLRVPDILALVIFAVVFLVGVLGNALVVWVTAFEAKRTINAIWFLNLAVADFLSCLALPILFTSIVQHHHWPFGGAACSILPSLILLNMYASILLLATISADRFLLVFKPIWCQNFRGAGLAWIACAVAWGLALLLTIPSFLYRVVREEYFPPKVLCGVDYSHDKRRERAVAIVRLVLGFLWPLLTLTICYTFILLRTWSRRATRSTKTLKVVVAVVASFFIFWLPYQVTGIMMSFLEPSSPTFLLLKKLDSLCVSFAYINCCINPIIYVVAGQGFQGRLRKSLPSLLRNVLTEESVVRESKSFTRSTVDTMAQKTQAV

Compound	IC50 [nM]
Cc1cccc(OCC(C)C)c1-n1nc2c(c1-c1cc(F)c(NC(N)=O)cc1F)CN(c1ncc(C(F)(F)F)cn1)CC2 [Example 1.164]	≤ 5
Cc1cccc(C)c1-n1nc2c(c1-c1cc(F)c(NC(N)=O)cc1F)CN(c1ncc(C(C)C)cc1F)CC2 [Example 1.165]	≤ 5
Cc1cccc(OCC(C)C)c1-n1nc2c(c1-c1cc(F)c(NC(N)=O)cc1F)CN(c1ncc(C(C)C)cn1)CC2 [Example 1.166]	≤ 5
NC(=O)Nc1cc(F)c(-c2c3c(nn2-c2ccccc2OC(F)(F)F)CCN(c2ncc(Cl)cc2Cl)C3)cc1F [Example 1.167]	≤ 5
Cc1cc(Cl)cnc1N1CCc2nn(-c3c(C)cccc3OCC(C)C)c(-c3cc(F)c(NC(N)=O)cc3F)c2C1 [Example 1.168]	≤ 5
Cc1cccc(OCC(C)C)c1-n1nc2c(c1-c1cc(F)c(NC(N)=O)cc1F)CN(c1ncc(F)cc1Cl)CC2 [Example 1.169]	≤ 5
Cc1cccc(OCC(C)C)c1-n1nc2c(c1-c1cc(F)c(NC(N)=O)cc1F)CN(c1ncccc1Cl)CC2 [Example 1.170]	≤ 5
CC(C)COc1cccnc1-n1nc2c(c1-c1cc(F)c(NC(N)=O)cc1F)CN(c1ncc(Cl)cc1Cl)CC2 [Example 1.171]	5 to 50
Cc1cccc(OCC(C)C)c1-n1nc2c(c1-c1cc(F)c(NC(N)=O)cc1F)CN(c1ncc(C3CC3)cc1F)CC2 [Example 1.172]	≤ 5
Cc1cccc(OCC(C)C)c1-n1nc2c(c1-c1cc(F)c(NC(N)=O)cc1F)CN(c1ncc(Cl)cc1F)CC2 [Example 1.173]	≤ 5
Cc1cccc(C)c1-n1nc2c(c1-c1cc(F)c(NC(N)=O)cc1F)CN(c1ncc(C(F)(F)F)cc1F)CC2 [Example 1.174]	≤ 5
Cc1cccc(OCC(C)C)c1-n1nc2c(c1-c1cc(F)c(NC(N)=O)cc1F)CN(c1ncc(Cl)cn1)CC2 [Example 1.175]	≤ 5
Cc1cccc(F)c1-n1nc2c(c1-c1cc(F)c(NC(N)=O)cc1F)CN(c1ncc(Cl)cc1Cl)CC2 [Example 1.176]	≤ 5
Cc1cc(N2CCc3nn(-c4c(C)cccc4OCC(C)C)c(-c4cc(F)c(NC(N)=O)cc4F)c3C2)ncc1Cl [Example 1.177]	≤ 5
Cc1cccc(OCC(C)C)c1-n1nc2c(c1-c1cc(F)c(NC(N)=O)cc1F)CN(c1ncccc1F)CC2 [Example 1.178]	≤ 5
COc1cccc(F)c1-n1nc2c(c1-c1cc(F)c(NC(N)=O)cc1F)CN(c1ncc(Cl)cc1Cl)CC2 [Example 1.179]	5 to 50
Cc1cccc(C)c1-n1nc2c(c1-c1cc(F)c(NC(N)=O)cc1F)CN(c1ncc(Cl)cc1Cl)CC2 [Example 1.180]	≤ 5
CCc1cccc(CC)c1-n1nc2c(c1-c1cc(F)c(NC(N)=O)cc1F)CN(C(C)c1cccc(F)c1)CC2 (centres unmarked) [Example 1.181]	≤ 5
Cc1cccc(OCC(C)C)c1-n1nc2c(c1-c1cc(F)c(NC(N)=O)cc1F)CN(c1ccc(Cl)cn1)CC2 [Example 1.182]	≤ 5
NC(=O)Nc1cc(F)c(-c2c3c(nn2-c2c(F)cccc2F)CCN(c2ncc(Cl)cc2Cl)C3)cc1F [Example 1.183]	5 to 50
COc1cccc(C)c1-n1nc2c(c1-c1cc(F)c(NC(N)=O)cc1F)CN(c1ncc(Cl)cc1Cl)CC2 [Example 1.184]	≤ 5
Cc1cc(C(C)C)cnc1N1CCc2nn(-c3c(C)cccc3OCC(C)C)c(-c3cc(F)c(NC(N)=O)cc3F)c2C1 [Example 1.185]	≤ 5

Compound	IC50 [nM]
CCc1cccc(CC)c1-n1nc2c(c1-c1cc(F)c(NC(N)=O)cc1F)CN(C(C)(C)c1ccccc1F)CC2 [Example 1.186]	≤ 5
NC(=O)Nc1cc(F)c(-c2c3c(nn2-c2c(Cl)cccc2Cl)CCN(c2ncc(Cl)cc2Cl)C3)cc1F [Example 1.187]	5 to 50
CC(C)COc1cccc(F)c1-n1nc2c(c1-c1cc(F)c(NC(N)=O)cc1F)CN(c1ncc(Cl)cc1Cl)CC2 [Example 1.188]	≤ 5
CC(C)COc1ccccc1-n1nc2c(c1-c1cc(F)c(NC(N)=O)cc1F)CN(c1ncc(Cl)cc1Cl)CC2 [Example 1.189]	≤ 5
Cc1cnc(N2CCc3nn(-c4c(C)cccc4OCC(C)C)c(-c4cc(F)c(NC(N)=O)cc4F)c3C2)c(Cl)c1 [Example 1.190]	≤ 5
Cc1cccc(OCC(C)C)c1-n1nc2c(c1-c1cc(F)c(NC(N)=O)cc1F)CN(c1ncccc1C(C)C)CC2 [Example 1.191]	≤ 5
CCc1cccc(CC)c1-n1nc2c(c1-c1cc(F)c(NC(N)=O)cc1F)CN(C(C)(C)c1ccc(F)cc1)CC2 [Example 1.192]	≤ 5
Cc1cccc(OCC(C)C)c1-n1nc2c(c1-c1cc(F)c(NC(N)=O)cc1F)CN(c1ccc(Cl)cc1Cl)CC2 [Example 1.194]	≤ 5
CCc1cccc(CC)c1-n1nc2c(c1-c1cc(F)c(NC(N)=O)cc1F)CN(C(C)(C)c1cccc(F)c1)CC2 [Example 1.195]	≤ 5
Cc1cccc(OCC(C)C)c1-n1nc2c(c1-c1cc(F)c(NC(N)=O)cc1F)CN(C(c1ccccc1)C(F)(F)F)CC2 (centres unmarked) [Example 1.196]	≤ 5
CCc1cccc(CC)c1-n1nc2c(c1-c1cc(F)c(NC(N)=O)cc1C)CN(C(C)c1ccccc1C(F)(F)F)CC2 (centres unmarked) [Example 1.197]	≤ 5
CC(C)COc1cccc(F)c1-n1nc2c(c1-c1cc(F)c(NC(N)=O)cc1F)CN(C(C)(C)c1ccccc1)CC2 [Example 1.198]	≤ 5
CC(C)COc1ccccc1-n1nc2c(c1-c1cc(F)c(NC(N)=O)cc1F)CN(C(C)(C)c1ccccc1)CC2 [Example 1.199]	≤ 5
CCc1cccc(CC)c1-n1nc2c(c1-c1cc(F)c(NC(N)=O)cc1F)CN(C(C)(C)c1ccccc1)CC2 [Example 1.200]	≤ 5
CCc1cccc(CC)c1-n1nc2c(c1-c1cc(F)c(NC(N)=O)cc1F)CN(c1ncc(Cl)cc1Cl)CC2 [Example 1.201]	≤ 5
Cc1cccc(OCC(C)C)c1-n1nc2c(c1-c1cc(F)c(NC(N)=O)cc1F)CN(c1ncc(C(C)C)cc1F)CC2 [Example 1.202]	≤ 5
CC(C)COc1cccc(F)c1-n1nc2c(c1-c1cc(F)c(NC(N)=O)cc1F)CN(c1ncc(C(F)(F)F)cc1F)CC2 [Example 1.203]	≤ 5
CCc1cccc(CC)c1-n1nc2c(c1-c1cc(F)c(NC(N)=O)cc1F)CN(C(C)(C)C)CC2 [Example 1.204]	5 to 50
CC(C)COc1ccccc1-n1nc2c(c1-c1cc(F)c(NC(N)=O)cc1F)CN(c1ncc(C(F)(F)F)cc1F)CC2 [Example 1.205]	≤ 5
Cc1cc(Cl)cnc1N1CCc2nn(-c3c(C)cccc3OCC(C)C)c(-c3ccc(NC(N)=O)c(F)c3)c2C1 [Example 1.206]	≤ 5
Cc1cccc(OCC(C)C)c1-n1nc2c(c1-c1cc(F)c(NC(N)=O)cc1F)CN(C(C)(C)c1ccccc1)CC2 [Example 1.207]	≤ 5
CCc1cccc(CC)c1-n1nc2c(c1-c1cc(F)c(NC(N)=O)cc1F)CN(C(C)c1ccccc1C(F)(F)F)CC2 (centres unmarked) [Example 1.208]	≤ 5

Compound	IC50 [nM]
Cc1cccc(OCC(C)C)c1-n1nc2c(c1-c1cc(F)c(NC(N)=O)cc1F)CN(C(C)(C)C#N)CC2 [Example 1.209]	50 to 500
Cc1cccc(OCC(C)C)c1-n1nc2c(c1-c1cc(F)c(NC(N)=O)cc1F)CN(c1ncc(Cl)cc1Cl)CC2 [Example 1.210]	≤ 5
Cc1cc(NC(N)=O)c(F)cc1-c1c2c(nn1-c1c(C)cccc1OCC(C)C)CCN(c1ncc(C(F)(F)F)cc1F)C2 [Example 1.211]	≤ 5
CCc1cccc(CC)c1-n1nc2c(c1-c1cc(F)c(NC(N)=O)cc1F)CN(C(C)(C)CC)CC2 [Example 1.212]	≤ 5
Cc1cnc(N2CCc3nn(-c4c(C)cccc4OCC(C)C)c(-c4ccc(NC(N)=O)c(F)c4)c3C2)c(Cl)c1 [Example 1.213]	≤ 5
CCC(C)(C)N1CCc2nn(-c3c(C)cccc3OCC(C)C)c(-c3cc(F)c(NC(N)=O)cc3F)c2C1 [Example 1.214]	≤ 5
CCc1cccc(CC)c1-n1nc2c(c1-c1ccc(NC(N)=O)c(F)c1)CN(C(C)CC(C)C)CC2 (centres unmarked) [Example 1.215]	5 to 50
CCc1cccc(CC)c1-n1nc2c(c1-c1ccc(NC(N)=O)c(F)c1)CN(C(C)C1CCCC1)CC2 (centres unmarked) [Example 1.216]	5 to 50
Cc1cccc(OCC(C)C)c1-n1nc2c(c1-c1cc(F)c(NC(N)=O)cc1Cl)CN(c1ncc(C(F)(F)F)cc1F)CC2 [Example 1.217]	≤ 5
Cc1cccc(OCC(C)C)c1-n1nc2c(c1-c1ccc(NC(N)=O)c(F)c1)CN(c1ncc(C(C)C)cc1F)CC2 [Example 1.218]	≤ 5
CCc1cccc(CC)c1-n1nc2c(c1-c1ccc(NC(N)=O)c(F)c1)CN(C(CC)CC)CC2 [Example 1.219]	5 to 50
C=C(C)c1cnc(N2CCc3nn(-c4c(C)cccc4OCC(C)C)c(-c4ccc(NC(N)=O)c(F)c4)c3C2)c(F)c1 [Example 1.220]	≤ 5
CCc1cccc(CC)c1-n1nc2c(c1-c1ccc(NC(N)=O)c(F)c1)CN(C(C)(C)CC)CC2 [Example 1.221]	50 to 500
Cc1cccc(OCC(C)C)c1-n1nc2c(c1-c1ccc(NC(N)=O)c(F)c1Cl)CN(c1ncc(C(F)(F)F)cc1F)CC2 [Example 1.222]	≤ 5
CCc1cccc(CC)c1-n1nc2c(c1-c1ccc(NC(N)=O)c(F)c1)CN(C(C)C1CCCCC1)CC2 (centres unmarked) [Example 1.223]	≤ 5
Cc1cnc(N2CCc3nn(-c4c(C)cccc4OCC(C)C)c(-c4ccc(NC(N)=O)c(F)c4)c3C2)c(F)c1 [Example 1.224]	≤ 5
Cc1cccc(OCC(C)C)c1-n1nc2c(c1-c1ccc(NC(N)=O)c(F)c1)CN(C(c1ccccc1)C(F)(F)F)CC2 (centres unmarked) [Example 1.225]	≤ 5
Cc1cccc(OCC(C)C)c1-n1nc2c(c1-c1ccc(NC(N)=O)c(C#N)c1)CN(c1ncc(C(F)(F)F)cc1F)CC2 [Example 1.226]	> 500
CCc1cccc(CC)c1-n1nc2c(c1-c1ccc(NC(N)=O)c(F)c1)CN(c1ncc(Cl)cc1Cl)CC2 [Example 1.227]	≤ 5
Cc1cccc(OCC(C)C)c1-n1nc2c(c1-c1ccc(NC(N)=O)c(F)c1)CN(c1ncc(F)cc1Cl)CC2 [Example 1.228]	≤ 5
Cc1cccc(OCC(C)C)c1-n1nc2c(c1-c1ccc(NC(N)=O)c(F)c1)CN(S(=O)(=O)c1ccccc1C(F)(F)F)CC2 [Example 1.229]	5 to 50
